In brackets after ≈: the same amount, converted by molar mass. Square brackets hold non-standard residues; d marks the D form. Peptide text beside a SMILES is read from it. * marks the point of attachment. boroAla((+)-pinanediol) = C[C@H](N*)B1O[C@@H]2C[C@@H]3C[C@@H](C3(C)C)[C@]2(C)O1; X7 = CC1(C)[C@@H]2C[C@H]3OB([C@@H]4CCCN4*)O[C@@]3(C)[C@H]1C2; Biphenylcarbonyl(4'-Bu) = CCCCc1ccc(-c2ccc(C(=O)*)cc2)cc1; X11 = CC[C@H](N*)B1OC2C[C@@H]3C[C@@H](C3(C)C)[C@]2(C)O1; X1 = C[C@H](N*)B1OC2C[C@@H]3C[C@@H](C3(C)C)[C@]2(C)O1; Benzoyl(4-(4-Cl-Ph)) = O=C(c1ccc(-c2ccc(Cl)cc2)cc1)*; NMeT = CN[C@H](C(=O)O)[C@@H](C)O; Hpg = N[C@H](C(=O)O)c1ccc(O)cc1; Tle = CC(C)(C)[C@H](N)C(=O)O; Lauroyl = CCCCCCCCCCCC(=O)*; Decanoyl = CCCCCCCCCC(=O)*; boroAla = C[C@H](N*)B(O)O; Abu = CC[C@H](N)C(=O)O; βAla = NCCC(=O)O
What was measured:
[1] = tested on: Escherichia coli strain MC4100 IMP-4213, which harbors an LptD mutation; settings: Method B; E. coli MC4100 IMP-4213 (LptD mutation); 35° C., 22 hours
Outline: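 Two-fold serial dilutions of compound inoculated at final OD600 0.0005, incubated static at 35 °C for 22 h, and growth read visually.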

[2] = tested on: methicillin resistant Staphylococcus aureus (MRSA) strain USA300 (NRS384); settings: Method B, 35° C., 22 hours
Protocol: In vitro antimicrobial activity of each compound was determined by measuring minimal inhibitor concentrations (MICs) using the broth micro-dilution technique as approved by the Clinical and Laboratory Standards Institute (CLSI). […] Bacterial inocula were prepared by scraping cells into 1 mL of testing media (cation adjusted Mueller Hinton Broth supplemented with 0.002% v/v Tween-80) and diluting to a final OD600 nm of 0.01.
Test compounds were prepared in DMSO at a concentration of 10 mg/ml. […] Bacterial inocula were added to the two fold serial dilutions of test compounds to a final density of OD OD600 nm of 0.0005 and incubated stationarily at 35° C. for 22 hours, after which the plates were examined visually.

[3] = biological target: S. aureus SPase (Staphylococcus aureus, UniProt P0A070); experiment: biochemical
Chain of S. aureus SPase (P0A070 whole entry): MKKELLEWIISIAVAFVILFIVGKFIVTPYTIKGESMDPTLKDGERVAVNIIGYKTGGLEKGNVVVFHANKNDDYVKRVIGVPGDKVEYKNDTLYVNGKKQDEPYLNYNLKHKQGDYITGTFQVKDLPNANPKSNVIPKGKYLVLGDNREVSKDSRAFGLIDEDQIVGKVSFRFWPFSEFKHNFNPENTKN

[4] = biological target: E. coli SPase (Escherichia coli, UniProt P00803); experiment: Biochemical SPase activity assay (fluorogenic peptide substrate), E. coli enzyme
Chain of E. coli SPase (P00803 whole entry): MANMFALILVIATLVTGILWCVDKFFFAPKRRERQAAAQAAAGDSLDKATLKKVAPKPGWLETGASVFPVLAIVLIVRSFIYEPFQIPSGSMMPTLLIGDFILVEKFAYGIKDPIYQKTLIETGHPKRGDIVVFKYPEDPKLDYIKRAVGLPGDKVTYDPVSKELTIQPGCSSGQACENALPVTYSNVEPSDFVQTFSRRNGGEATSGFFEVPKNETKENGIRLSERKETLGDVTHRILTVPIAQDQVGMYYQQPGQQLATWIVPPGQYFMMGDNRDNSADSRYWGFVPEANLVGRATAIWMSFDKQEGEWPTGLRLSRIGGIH

SMILES | MIC (μg/mL) E. coli [1] | MIC (μg/mL) S. aureus [2] | IC50 [3] | IC50 [4]
CCCCc1ccc(-c2ccc(C(=O)N[C@@H](CCCCN)C(=O)N[C@@H](C)C(=O)N[C@@H](CC(C)C)C(=O)N[C@@H](C)B(O)O)cc2)cc1 [Compound 191] | 16 µg/mL (≈ 25.1 µM) | 20 µg/mL (≈ 31.4 µM) | 50 µM | 38 µM
CCCCc1ccc(-c2ccc(C(=O)NCCC(=O)N[C@@H](CCCCN)C(=O)N(C)[C@H](C(=O)N[C@@H](C)C(=O)N[C@@H](CC(N)=O)C(=O)N[C@@H](C)B3OC4C[C@@H]5C[C@@H](C5(C)C)[C@]4(C)O3)[C@@H](C)O)cc2)cc1 (stereo partly drawn) [Compound 192] ({Biphenylcarbonyl(4'-Bu)-βAla}-K[NMeT]AN-X1) | 16 µg/mL (≈ 16.7 µM) | 0.59 µg/mL (≈ 0.615 µM) | 0.012 µM | 0.027 µM
CCCCc1ccc(-c2ccc(C(=O)NCCC(=O)N[C@@H](CCCCN)C(=O)N[C@H](C(=O)N[C@@H](C)C(=O)N[C@@H](CCCCN)C(=O)N[C@@H](C)B3OC4C[C@@H]5C[C@@H](C5(C)C)[C@]4(C)O3)[C@@H](C)O)cc2)cc1 (stereo partly drawn) [Compound 193] ({Biphenylcarbonyl(4'-Bu)-βAla}-KTAK-X1) | 5 µg/mL (≈ 5.21 µM) | 0.16 µg/mL (≈ 0.167 µM) | 0.003 µM | 0.015 µM
CCCCc1ccc(-c2ccc(C(=O)NCCC(=O)N[C@@H](CCCCN)C(=O)N[C@H](C(=O)N[C@@H](C)C(=O)N[C@H](C(=O)N[C@@H](C)B3O[C@@H]4C[C@@H]5C[C@@H](C5(C)C)[C@]4(C)O3)C(C)C)[C@@H](C)O)cc2)cc1 [Compound 194] ({Biphenylcarbonyl(4'-Bu)-βAla}-KTAV-{boroAla((+)-pinanediol)}) | 6.3 µg/mL (≈ 6.77 µM) | 0.71 µg/mL (≈ 0.763 µM) | 0.0047 µM | 0.016 µM
CCCCc1ccc(-c2ccc(C(=O)NCCC(=O)N[C@@H](CCCCN)C(=O)N[C@H](C(=O)N[C@@H](C)C(=O)N[C@@H](CCC(=O)O)C(=O)N[C@@H](C)B3OC4C[C@@H]5C[C@@H](C5(C)C)[C@]4(C)O3)[C@@H](C)O)cc2)cc1 (stereo partly drawn) [Compound 195] ({Biphenylcarbonyl(4'-Bu)-βAla}-KTAE-X1) | 32 µg/mL (≈ 33.3 µM) | 1.2 µg/mL (≈ 1.25 µM) | 0.0026 µM | 0.019 µM
CCCCc1ccc(-c2ccc(C(=O)NCCC(=O)N[C@@H](CCCCN)C(=O)N[C@H](C(=O)N[C@@H](C)C(=O)N[C@@H](Cc3c[nH]cn3)C(=O)N[C@@H](C)B3OC4C[C@@H]5C[C@@H](C5(C)C)[C@]4(C)O3)[C@@H](C)O)cc2)cc1 (stereo partly drawn) [Compound 196] ({Biphenylcarbonyl(4'-Bu)-βAla}-KTAH-X1) | 2.5 µg/mL (≈ 2.58 µM) | 0.66 µg/mL (≈ 0.682 µM) | 0.0057 µM | 0.0088 µM
CCCCc1ccc(-c2ccc(C(=O)NCCC(=O)N[C@@H](CCCCN)C(=O)N[C@@H](CCCCN)C(=O)N[C@@H](C)C(=O)N[C@@H](CC(N)=O)C(=O)N[C@@H](C)B3OC4C[C@@H]5C[C@@H](C5(C)C)[C@]4(C)O3)cc2)cc1 (stereo partly drawn) [Compound 197] ({Biphenylcarbonyl(4'-Bu)-βAla}-KKAN-X1) | 1 µg/mL (≈ 1.03 µM) | 0.3 µg/mL (≈ 0.309 µM) | 0.0062 µM | 0.011 µM
CCCCc1ccc(-c2ccc(C(=O)NCCC(=O)N[C@@H](CCCCN)C(=O)N[C@H](C(=O)N[C@@H](C)C(=O)N[C@@H](CC(C)C)C(=O)N[C@@H](C)B3OC4C[C@@H]5C[C@@H](C5(C)C)[C@]4(C)O3)[C@@H](C)O)cc2)cc1 (stereo partly drawn) [Compound 198] ({Biphenylcarbonyl(4'-Bu)-βAla}-KTAL-X1) | 5 µg/mL (≈ 5.3 µM) | 0.5 µg/mL (≈ 0.53 µM) | 0.0089 µM | 0.042 µM
CCCCCCCCCC(=O)NCCC(=O)N[C@@H](CCCCN)C(=O)N[C@H](C(=O)N[C@@H](C)C(=O)N[C@@H](CC(N)=O)C(=O)N[C@@H](C)B1OC2C[C@@H]3C[C@@H](C3(C)C)[C@]2(C)O1)[C@@H](C)O (stereo partly drawn) [Compound 199] ({Decanoyl-βAla}-KTAN-X1) | >64 µg/mL | 7 µg/mL (≈ 8.11 µM) | 0.0014 µM | 0.0045 µM
CCCCc1ccc(-c2ccc(C(=O)NCCC(=O)N[C@@H](CCCCN)C(=O)N[C@H](C(=O)N[C@@H](C)C(=O)N[C@@H](CC(N)=O)C(=O)N3CCC[C@H]3B3O[C@@H]4C[C@@H]5C[C@@H](C5(C)C)[C@]4(C)O3)[C@@H](C)O)cc2)cc1 [Compound 200] ({Biphenylcarbonyl(4'-Bu)-βAla}-KTAN-X7) | 64 µg/mL (≈ 65.9 µM) | >64 µg/mL | 1.2 µM | 5.2 µM
C[C@H](NC(=O)[C@H](CC(N)=O)NC(=O)[C@H](C)NC(=O)[C@@H](NC(=O)[C@H](CCCCN)NC(=O)CCNC(=O)c1ccc(-c2ccc(Cl)cc2)cc1)[C@@H](C)O)B1OC2C[C@@H]3C[C@@H](C3(C)C)[C@]2(C)O1 (stereo partly drawn) [Compound 201] ({Benzoyl(4-(4-Cl-Ph))-βAla}-KTAN-X1) | 64 µg/mL (≈ 69.3 µM) | 4.6 µg/mL (≈ 4.98 µM) | 0.0019 µM | 0.008 µM
CCCCCCCCCCCC(=O)NCCC(=O)N[C@@H](CCCCN)C(=O)N[C@H](C(=O)N[C@@H](C)C(=O)N[C@@H](CC(N)=O)C(=O)N[C@@H](C)B1OC2C[C@@H]3C[C@@H](C3(C)C)[C@]2(C)O1)[C@@H](C)O (stereo partly drawn) [Compound 202] ({Lauroyl-βAla}-KTAN-X1) | 23 µg/mL (≈ 25.8 µM) | 1.1 µg/mL (≈ 1.23 µM) | 0.0035 µM | 0.0071 µM
CCCCc1ccc(-c2ccc(C(=O)NCCC(=O)N[C@@H](CCCCN)C(=O)N[C@H](C(=O)N[C@@H](C)C(=O)N[C@@H](CC(N)=O)C(=O)N[C@@H](CC)B3OC4C[C@@H]5C[C@@H](C5(C)C)[C@]4(C)O3)[C@@H](C)O)cc2)cc1 (stereo partly drawn) [Compound 203] ({Biphenylcarbonyl(4'-Bu)-βAla}-KTAN-X11) | 32 µg/mL (≈ 33.4 µM) | 1.4 µg/mL (≈ 1.46 µM) | 0.021 µM | 0.13 µM
CCCCc1ccc(-c2ccc(C(=O)NCCC(=O)N[C@@H](CCCCN)C(=O)N[C@H](C(=O)N[C@@H](C)C(=O)N[C@@H](CC(N)=O)C(=O)N[C@@H](C)B(O)O)[C@@H](C)O)cc2)cc1 [Compound 204] ({Biphenylcarbonyl(4'-Bu)-βAla}-KTAN-boroAla) | 4.6 µg/mL (≈ 5.67 µM) | 0.45 µg/mL (≈ 0.555 µM) | 0.013 µM | 0.033 µM
CCCCc1ccc(-c2ccc(C(=O)NCCC(=O)N[C@@H](CCCCN)C(=O)N[C@H](C(=O)N[C@@H](CC)C(=O)N[C@@H](CC(N)=O)C(=O)N[C@@H](CC)B3OC4C[C@@H]5C[C@@H](C5(C)C)[C@]4(C)O3)[C@@H](C)O)cc2)cc1 (stereo partly drawn) [Compound 205] ({Biphenylcarbonyl(4'-Bu)-βAla}-KT[Abu]N-X11) | 32 µg/mL (≈ 32.9 µM) | 2 µg/mL (≈ 2.06 µM) | 0.02 µM | 0.21 µM
CCCCc1ccc(-c2ccc(C(=O)NCCC(=O)N[C@@H](CCCCN)C(=O)N[C@H](C(=O)N[C@@H](CC)C(=O)N[C@@H](CC(N)=O)C(=O)N[C@@H](C)B3OC4C[C@@H]5C[C@@H](C5(C)C)[C@]4(C)O3)[C@@H](C)O)cc2)cc1 (stereo partly drawn) [Compound 206] ({Biphenylcarbonyl(4'-Bu)-βAla}-KT[Abu]N-X1) | 2 µg/mL (≈ 2.09 µM) | 0.5 µg/mL (≈ 0.521 µM) | 0.0052 µM | 0.0063 µM
CCCCc1ccc(-c2ccc(C(=O)NCCC(=O)N[C@@H](CCCCN)C(=O)N[C@@H](CCCCN)C(=O)N[C@@H](C)C(=O)N[C@@H](CCCCN)C(=O)N[C@@H](C)B3OC4C[C@@H]5C[C@@H](C5(C)C)[C@]4(C)O3)cc2)cc1 (stereo partly drawn) [Compound 207] ({Biphenylcarbonyl(4'-Bu)-βAla}-KKAK-X1) | 2 µg/mL (≈ 2.03 µM) | 0.099 µg/mL (≈ 0.1 µM) | 0.013 µM | 0.087 µM
CCCCc1ccc(-c2ccc(C(=O)NCCC(=O)N[C@@H](CCCCN)C(=O)N3CCC[C@H]3C(=O)N[C@@H](C)C(=O)N[C@@H](CC(N)=O)C(=O)N[C@@H](C)B3OC4C[C@@H]5C[C@@H](C5(C)C)[C@]4(C)O3)cc2)cc1 (stereo partly drawn) [Compound 208] ({Biphenylcarbonyl(4'-Bu)-βAla}-KPAN-X1) | 4 µg/mL (≈ 4.25 µM) | 0.31 µg/mL (≈ 0.329 µM) | 0.0057 µM | 0.02 µM
CCCCc1ccc(-c2ccc(C(=O)NCCC(=O)N[C@@H](CCCCN)C(=O)N[C@H](C(=O)N[C@@H](C)C(=O)N[C@@H](CC(N)=O)C(=O)N[C@@H](C)B3OC4C[C@@H]5C[C@@H](C5(C)C)[C@]4(C)O3)c3ccc(O)cc3)cc2)cc1 (stereo partly drawn) [Compound 209] ({Biphenylcarbonyl(4'-Bu)-βAla}-K[Hpg]AN-X1) | 2.5 µg/mL (≈ 2.52 µM) | 1 µg/mL (≈ 1.01 µM) | 0.015 µM | 0.012 µM
CCCCc1ccc(-c2ccc(C(=O)NCCC(=O)N[C@@H](CCCCN)C(=O)N[C@H](C(=O)N[C@@H](C)C(=O)N[C@@H](CC(N)=O)C(=O)N[C@@H](C)B3OC4C[C@@H]5C[C@@H](C5(C)C)[C@]4(C)O3)C(C)(C)C)cc2)cc1 (stereo partly drawn) [Compound 210] ({Biphenylcarbonyl(4'-Bu)-βAla}-K[Tle]AN-X1) | 4 µg/mL (≈ 4.18 µM) | 0.71 µg/mL (≈ 0.742 µM) | 0.016 µM | 0.056 µM
CCCCc1ccc(-c2ccc(C(=O)NCCC(=O)N[C@@H](CCCCN)C(=O)N[C@H](C(=O)N[C@H](C(=O)N[C@@H](CC(N)=O)C(=O)N[C@@H](C)B3OC4C[C@@H]5C[C@@H](C5(C)C)[C@]4(C)O3)C(C)C)[C@@H](C)O)cc2)cc1 (stereo partly drawn) [Compound 212] ({Biphenylcarbonyl(4'-Bu)-βAla}-KTVN-X1) | 5 µg/mL (≈ 5.14 µM) | 0.84 µg/mL (≈ 0.863 µM) | 0.012 µM | 0.026 µM
